For 7 molecules, inhibition, IC50 and selectivity ratio results are on record in ChEMBL document CHEMBL5365466, “Discovery of Triazolyl Derivatives of Cucurbitacin B Targeting IGF2BP1 against Non-Small Cell Lung Cancer” (J Med Chem, 2023).

A word on the inhibition: it is the share of the control response that was lost under treatment. One may read the IC50 as the concentration that gives 50% inhibition.

A short description of data set [1]: Antiproliferative activity against human L02 cells assessed as cell growth inhibition at 1 uM incubated for 72 hrs by SRB assay. Type of data set: toxicity, cell-based. (In general: The SRB assay estimates cell density from bound dye.)
The test system of data set [2] is HCT-116. Briefly: Antiproliferative activity against human HCT-116 cells assessed as cell growth inhibition incubated for 72 hrs by SRB assay. To be noted: HCT-116, 72 h. The class given is functional, cell-based.
Data set [3] can be described thus: Selectivity index, ratio of IC50 for antiproliferative activity against human L02 cells to IC50 for antiproliferative activity against human HCT-116 cells. Type of data set: toxicity, cell-based. To be noted: L02 cells versus HCT-116 cells, read-out: Ratio IC50.
The test system of data set [4] is HCT-116. Briefly: Antiproliferative activity against human HCT-116 cells assessed as cell growth inhibition at 0.1 uM incubated for 72 hrs by SRB assay. Type of data set: functional.
Data set [5] can be described thus: Antiproliferative activity against human L02 cells assessed as cell growth inhibition incubated for 72 hrs by SRB assay. Type of data set: toxicity, cell-based.
Data set [6] has as its system HCT-116. Briefly: Antiproliferative activity against human HCT-116 cells assessed as cell growth inhibition at 1 uM incubated for 72 hrs by SRB assay. Type of data set: functional.
Data set [7] can be described thus: Antiproliferative activity against human L02 cells assessed as cell growth inhibition at 0.1 uM incubated for 72 hrs by SRB assay. Type of data set: toxicity, cell-based.
A further data set has as its system A549. Briefly: Antiproliferative activity against human A549 cells assessed as cell growth inhibition. The class given is functional, cell-based.

Regarding `CC(=O)OC(C)(C)/C=C/C(=O)[C@](C)(O)[C@H]1[C@H](O)C[C@@]2(C)[C@@H]3CC=C4[C@@H](C[C@H](OC(=O)Cn5ncn(-c6ccc(Cl)cc6)c5=O)C(=O)C4(C)C)[C@]3(C)C(=O)C[C@]12C`, the inhibition at 72 h, 1 µM in data set [1] was 70.9%. The IC50 with HCT-116 [2] was found to be 63 nM. Besides, the selectivity ratio in data set [3] was 0.49. Moreover, the inhibition at 0.1 µM in the data set with HCT-116 [4] stood at 69%. For the same molecule, the IC50 at 72 h in data set [5] stood at 31 nM. For the same molecule, the inhibition at 1 µM in the data set with HCT-116 [6] was 84.4%. Moreover, the inhibition at 72 h, 0.1 µM in data set [7] was found to be 61.3%.
For `COc1ccc(-n2cnn(CC(=O)O[C@H]3C[C@@H]4C(=CC[C@@H]5[C@@]4(C)C(=O)C[C@]4(C)[C@@H]([C@@](C)(O)C(=O)/C=C/C(C)(C)OC(C)=O)[C@H](O)C[C@@]54C)C(C)(C)C3=O)c2=O)cc1`, the inhibition at 72 h, 1 µM in data set [1] came out at 70.8%. Further, in the data set with HCT-116 [2], the IC50 came to 44 nM. The selectivity ratio in data set [3] came out at 0.75. Besides, the inhibition at 0.1 µM in the data set on HCT-116 [4] came out at 64.3%. Also, in data set [5], the IC50 at 72 h is 33 nM. The inhibition at 1 µM with HCT-116 [6] is 83.3%. For the same molecule, in data set [7], the inhibition at 72 h, 0.1 µM came to 31.4%.
As to `CC1(C)C(=O)[C@@H](O)C[C@@H]2C1=CC[C@@H]1[C@@]2(C)C(=O)C[C@]2(C)[C@@H]([C@@](C)(O)C(=O)/C=C/C(C)(C)c3cccc(C#N)c3)[C@H](O)C[C@@]12C`, the IC50 in the data set on A549 amounted to 6.8 nM.
The same measure, in the same setting: to `CC(=O)OC(C)(C)/C=C/C(=O)[C@](C)(O)[C@H]1[C@H](O)C[C@@]2(C)[C@@H]3CC=C4[C@@H](C[C@H](N)C(=O)C4(C)C)[C@]3(C)C(=O)C[C@]12C` belongs 120 nM.
Take `CC(=O)OC(C)(C)/C=C/C(=O)[C@](C)(O)[C@H]1[C@H](O)C[C@@]2(C)[C@@H]3CC=C4[C@@H](C[C@H](OC(=O)c5ccccn5)C(=O)C4(C)C)[C@]3(C)C(=O)C[C@]12C`: the inhibition at 72 h, 1 µM in data set [1] amounted to 71.2%. In the data set with HCT-116 [2], the IC50 was determined as 79 nM. Further, the selectivity ratio in data set [3] came to 0.43. Moreover, the inhibition at 0.1 µM in the data set with HCT-116 [4] was 67.9%. The IC50 at 72 h in data set [5] was determined as 34 nM. In addition, the inhibition at 1 µM in the data set on HCT-116 [6] stood at 83.1%. The inhibition at 72 h, 0.1 µM in data set [7] amounted to 44.8%.
`CC(=O)OC(C)(C)/C=C/C(=O)[C@](C)(O)[C@H]1[C@H](O)C[C@@]2(C)[C@@H]3CC=C4[C@@H](C[C@H](OC(=O)Cn5ncn(-c6ccc(Br)cc6)c5=O)C(=O)C4(C)C)[C@]3(C)C(=O)C[C@]12C`: the inhibition at 72 h, 1 µM in data set [1] stood at 67.5%. In the data set on HCT-116 [2], the IC50 is 76 nM. For the same molecule, the selectivity ratio in data set [3] was determined as 0.41. Besides, in the data set on HCT-116 [4], the inhibition at 0.1 µM is 70.8%. Also, the IC50 at 72 h in data set [5] came to 31 nM. In the data set with HCT-116 [6], the inhibition at 1 µM was found to be 84.2%. Further, the inhibition at 72 h, 0.1 µM in data set [7] came out at 54.1%.
Turning to `CC(=O)OC(C)(C)/C=C/C(=O)[C@](C)(O)[C@H]1[C@H](O)C[C@@]2(C)[C@@H]3CC=C4[C@@H](C[C@H](OC(=O)c5cn(-c6ccc(F)cc6)nn5)C(=O)C4(C)C)[C@]3(C)C(=O)C[C@]12C`, the inhibition at 72 h, 1 µM in data set [1] came to 71.9%. Moreover, in the data set with HCT-116 [2], the half-inhibitory concentration (IC50) came to 31 nM. The selectivity ratio in data set [3] was found to be 2.58. Moreover, in the data set on HCT-116 [4], the inhibition at 0.1 µM worked out at 65.3%. In addition, in data set [5], the IC50 at 72 h was 80 nM. Further, the inhibition at 1 µM in the data set with HCT-116 [6] was 87.4%. For the same molecule, in data set [7], the inhibition at 72 h, 0.1 µM was 36.4%.
